Experimental data published in ChEMBL document CHEMBL1130980, “Novel antiproliferative falcarindiol furanocoumarin ethers from the root of Angelica japonica” (1998).
Values after ≈ are worked out from the molar mass of the structure shown.

Test: Inhibitory activity in MTT assay against MK-I cell
Type: functional
Conditions: Homo sapiens, read-out: ED50 (the source's name)

| Structure (SMILES) | EC50 |
| --- | --- |
| C=CC(O)C#CC#CC(O)/C=C\C(O)CCCCCC (centres undefined) | 2.2 µg/mL (≈ 7.96 µM) |
| C=CC(O)C#CC#C[C@@H](O)/C=C\CCCCCCC (single isomer, unassigned) [FALCARINDIOL] | 3.2 µg/mL (≈ 12.3 µM) |
| C=C[C@H](O)C#CC#CC(/C=C\CCCCCCC)OC(C)=O (some centres undefined) | 3.2 µg/mL (≈ 10.6 µM) |
| C=C[C@H](O)C#CC#CC/C=C\CCCCCCC [FALCARINOL] | 0.3 µg/mL (≈ 1.23 µM) |
